Data: patent publication EP0017102A1, “Composition containing a phenyl benzoic acid compound and acetaminophen combination for the treatment of pain and inflammation and process for preparing the same” (Merck & Co., Inc., priority 1979, dated 1980)

How the values were obtained:
[1] = tested on: adjuvant arthritis induced in rats; experiment: adjuvant arthritis analgesic bioassay (tail pinch / foot bend squeak response); format: in vivo, Sprague-Dawley rats
Text: Since analgesic tests using intact animals are not sensitive enough to detect the analgesic activity of nonsteroidal anti-inflammatory compounds, the analgesic bioassay employed utilized inflammatory sensitization procedures, specifically adjuvant arthritis. Adjuvant arthritis induced in rats, the animals used in the bioassay, resembles rheumatoid arthritis in man with respect to the manifestation of inflammation and hyperalgesia. When the affected joints of rats with adjuvant arthritis are subjected to a gentle manipulation, preferably by extending the joint, the rats respond by squeaking, which is a definite and reproducible sign of algesia. The ability of the tested compounds to suppress this squeaking response was an accurate measure of the analgesic activity of the tested compounds.
In accordance with the adjuvant arthritis bioassay used to evaluate the analgesic activity of the combinations of compounds of the present invention, young adult Sprague-Dawley rats of either sex are rendered hyperalgesic by injection of dessicated Mycobacterium- butyricum suspended in light mineral oil (Freund's adjuvant). The mycobacteria are ground in a mortar, suspended in the oil, and sterilized in an autoclave. Each animal receives 0.5 mg of the bacteria in 0.1 ml of oil, injected subcutaneously through a 21-gauge needle into the distal third of the tail.
The animals can subsequently be used in two ways for testing the analgesic action of drugs. The day after the injection of adjuvant, the tail is found to be sensitive to touch. Approximately 16 hours after the injection, the experimenter tests the animals for the presence of hyperalgesia. This is done by holding the animal in one hand. With the thumb and forefinger of the other hand, the observer applies gentle pressure to the tail about 2.5 cm proximal to the point where the needle has been inserted. This gentle pressure is repeated at 5-sec intervals. If the rat endures five such gentle presses without emitting more than one "squeak", analgesia is considered to be present and a score of + is assigned. Two or more squeaks earns a rating of 0, or no analgesia. Before being assigned to an experiment, animals are screened and only those with the 0 rating are used.
The hyperalgesic animals are assigned randomly to drug treatments and one of the treatments is always the vehicle without the drug (placebo group). […] […] This entire procedure may be referred to as "tail pinch" .technique. Alternatively, an apparatus for applying pressure to the tail may be employed and the "squeak threshold" determined before and after drug.
The adjuvant-injected animals, if left undisturbed, develop severe arthritis which becomes especially manifest in about two weeks. […] This "foot bend" technique yields drug responses essentially identical with those obtained by the "tail pinch" procedure.
For a further description of this bioassay and its significance, reference is made to Kuzuma and Kawai, "Evaluation of Analgesic Agents in Rats with Adjuvant Arthritis", Chem. Pharm. Bull., 23 (6) 1184-1191 (1975).

[2] = tested on: female albino mice (Carworth CF-1); experiment: in vivo; format: in vivo; settings: Group I: Diflunisal 400 mg./kg. (100 %LD50) alone; oral; 20 tested; 14 days
Procedure: Measurements of the relative safety of the components and of the combination were carried out using acute oral toxicity studies in female mice. Randomly selected female albino mice (Carworth CF-1) weighing from 18 to 24 grams, and 6 to 7 weeks old, were used. The LD50 value for each drug was estimated from acute oral dose-response curves previously established. The following dose regimen was utilized:
The preparations were administered by gastric intubation using a metal catheter attached to a springe. The various doses were administered randomly with 20 mice per group. Food was withheld one to two hours before and three hours following drug treatment. Water was available at all times. […] Body weights were taken pretest and on days 7 and 14.

O=C(O)c1cc(-c2ccc(F)cc2F)ccc1O [Diflunisal, 2-hydroxy-5-(2',4'-difluorophenyl)benzoic acid]
3: Number of Rats with Analgesia ([1]; 3 h after administration, dose 8 mg./kg., 8 rats per dose) | Number of Rats with Analgesia ([1]; 4 h after administration, dose 8 mg./kg., 10 rats per dose) | Number of Rats with Analgesia ([1]; 4 h after administration, dose 16 mg./kg., 8 rats per dose)
1: Number of Rats with Analgesia ([1]; 1 h after administration, dose 20 mg./kg., 8 rats per dose) | Number of Rats with Analgesia ([1]; 2 h after administration, dose 4 mg./kg., 10 rats per dose) | Number of Rats with Analgesia ([1]; 2 h after administration, dose 5 mg./kg., 8 rats per dose) | Number of Rats with Analgesia ([1]; 2 h after administration, dose 8 mg./kg., 8 rats per dose) | Number of Rats with Analgesia ([1]; 2 h after administration, dose 10 mg./kg., 8 rats per dose) | Number of Rats with Analgesia ([1]; 3 h after administration, dose 4 mg./kg., 8 rats per dose) | Number of Rats with Analgesia ([1]; 4 h after administration, dose 5 mg./kg., 8 rats per dose) | Number of Rats with Analgesia ([1]; 4 h after administration, dose 8 mg./kg., 8 rats per dose) | Number of Rats with Analgesia ([1]; 5 h after administration, dose 4 mg./kg., 10 rats per dose) | Number of Rats with Analgesia ([1]; 6 h after administration, dose 8 mg./kg., 10 rats per dose) | Number of Rats with Analgesia ([1]; 6 h after administration, dose 16 mg./kg., 8 rats per dose) | Total Positives ([1]; sum over 1/2, 1 and 2 h, dose 5 mg./kg., 8 rats per dose) | Total Positives ([1]; sum over 1/2, 1 and 2 h, dose 10 mg./kg., 8 rats per dose) | Total Positives ([1]; sum over 1 and 2 h, dose 4 mg./kg., 10 rats per dose)
7: Number of Rats with Analgesia ([1]; 3 h after administration, dose 20 mg./kg., 8 rats per dose) | Number of Rats with Analgesia ([1]; 4 h after administration, dose 20 mg./kg., 8 rats per dose)
0%: Percent of Rats with Analgesia Diflunisal Alone ([1]; 1 Hrs. after drug, Diflunisal 4 mg./kg., 8 rats per dose) | Percent of Rats with Analgesia Diflunisal Alone ([1]; 1 Hrs. after drug, Diflunisal 4 mg./kg., 10 rats per dose) | Percent of Rats with Analgesia Diflunisal Alone ([1]; 1 Hrs. after drug, Diflunisal 8 mg./kg., 8 rats per dose) | Percent of Rats with Analgesia Diflunisal Alone ([1]; 1 Hrs. after drug, Diflunisal 10 mg./kg., 8 rats per dose) | Percent of Rats with Analgesia Diflunisal Alone ([1]; 1 Hrs. after drug, Diflunisal 16 mg./kg., 8 rats per dose) | Percent of Rats with Analgesia Diflunisal Alone ([1]; 3 Hrs. after drug, Diflunisal 4 mg./kg., 10 rats per dose) | Percent of Rats with Analgesia Diflunisal Alone ([1]; 4 Hrs. after drug, Diflunisal 2 mg./kg., 10 rats per dose) | Percent of Rats with Analgesia Diflunisal Alone ([1]; 4 Hrs. after drug, Diflunisal 4 mg./kg., 10 rats per dose) | Percent of Rats with Analgesia Diflunisal Alone ([1]; 5 Hrs. after drug, Diflunisal 5 mg./kg., 8 rats per dose) | Percent of Rats with Analgesia Diflunisal Alone ([1]; 5 Hrs. after drug, Diflunisal 8 mg./kg., 8 rats per dose) | Percent of Rats with Analgesia Diflunisal Alone ([1]; 6 Hrs. after drug, Diflunisal 8 mg./kg., 8 rats per dose) | Percent of Rats with Analgesia Diflunisal Alone ([1]; 6 Hrs. after drug, Diflunisal 10 mg./kg., 8 rats per dose)
25%: Percent of Rats with Analgesia Diflunisal Alone ([1]; 3 Hrs. after drug, Diflunisal 5 mg./kg., 8 rats per dose)
20%: Percent of Rats with Analgesia Diflunisal Alone ([1]; 2 Hrs. after drug, Diflunisal 2 mg./kg., 10 rats per dose)
14: No. Dead [2]
10%: Percent of Rats with Analgesia Diflunisal Alone ([1]; 4 Hrs. after drug, Diflunisal 5 mg./kg., 8 rats per dose)
0: Number of Rats with Analgesia ([1]; 1/2 h after administration, dose 5 mg./kg., 8 rats per dose) | Number of Rats with Analgesia ([1]; 1/2 h after administration, dose 10 mg./kg., 8 rats per dose) | Number of Rats with Analgesia ([1]; 1 h after administration, dose 4 mg./kg., 8 rats per dose) | Number of Rats with Analgesia ([1]; 1 h after administration, dose 4 mg./kg., 10 rats per dose) | Number of Rats with Analgesia ([1]; 1 h after administration, dose 5 mg./kg., 8 rats per dose) | Number of Rats with Analgesia ([1]; 1 h after administration, dose 8 mg./kg., 8 rats per dose) | Number of Rats with Analgesia ([1]; 1 h after administration, dose 10 mg./kg., 8 rats per dose) | Number of Rats with Analgesia ([1]; 1 h after administration, dose 16 mg./kg., 8 rats per dose) | Number of Rats with Analgesia ([1]; 3 h after administration, dose 4 mg./kg., 10 rats per dose) | Number of Rats with Analgesia ([1]; 4 h after administration, dose 2 mg./kg., 10 rats per dose) | Number of Rats with Analgesia ([1]; 4 h after administration, dose 4 mg./kg., 8 rats per dose) | Number of Rats with Analgesia ([1]; 4 h after administration, dose 4 mg./kg., 10 rats per dose) | Number of Rats with Analgesia ([1]; 5 h after administration, dose 2 mg./kg., 10 rats per dose) | Number of Rats with Analgesia ([1]; 5 h after administration, dose 4 mg./kg., 8 rats per dose) | Number of Rats with Analgesia ([1]; 5 h after administration, dose 5 mg./kg., 8 rats per dose) | Number of Rats with Analgesia ([1]; 5 h after administration, dose 8 mg./kg., 8 rats per dose) | Number of Rats with Analgesia ([1]; 6 h after administration, dose 2 mg./kg., 10 rats per dose) | Number of Rats with Analgesia ([1]; 6 h after administration, dose 4 mg./kg., 8 rats per dose) | Number of Rats with Analgesia ([1]; 6 h after administration, dose 4 mg./kg., 10 rats per dose) | Number of Rats with Analgesia ([1]; 6 h after administration, dose 5 mg./kg., 8 rats per dose) | Number of Rats with Analgesia ([1]; 6 h after administration, dose 8 mg./kg., 8 rats per dose) | Number of Rats with Analgesia ([1]; 6 h after administration, dose 10 mg./kg., 8 rats per dose)
50%: Percent of Rats with Analgesia Diflunisal Alone ([1]; 3 Hrs. after drug, Diflunisal 8 mg./kg., 10 rats per dose)
4: Number of Rats with Analgesia ([1]; 1 h after administration, dose 8 mg./kg., 10 rats per dose) | Number of Rats with Analgesia ([1]; 2 h after administration, dose 8 mg./kg., 10 rats per dose) | Number of Rats with Analgesia ([1]; 2 h after administration, dose 16 mg./kg., 8 rats per dose) | Number of Rats with Analgesia ([1]; 2 h after administration, dose 20 mg./kg., 8 rats per dose) | Number of Rats with Analgesia ([1]; 3 h after administration, dose 10 mg./kg., 8 rats per dose) | Number of Rats with Analgesia ([1]; 4 h after administration, dose 10 mg./kg., 8 rats per dose) | Number of Rats with Analgesia ([1]; 6 h after administration, dose 20 mg./kg., 8 rats per dose)
6: Number of Rats with Analgesia ([1]; 3 h after administration, dose 16 mg./kg., 8 rats per dose)
2: Number of Rats with Analgesia ([1]; 1 h after administration, dose 2 mg./kg., 10 rats per dose) | Number of Rats with Analgesia ([1]; 2 h after administration, dose 2 mg./kg., 10 rats per dose) | Number of Rats with Analgesia ([1]; 2 h after administration, dose 4 mg./kg., 8 rats per dose) | Number of Rats with Analgesia ([1]; 3 h after administration, dose 2 mg./kg., 10 rats per dose) | Number of Rats with Analgesia ([1]; 3 h after administration, dose 5 mg./kg., 8 rats per dose) | Number of Rats with Analgesia ([1]; 5 h after administration, dose 8 mg./kg., 10 rats per dose) | Number of Rats with Analgesia ([1]; 5 h after administration, dose 10 mg./kg., 8 rats per dose) | Number of Rats with Analgesia ([1]; 5 h after administration, dose 16 mg./kg., 8 rats per dose)
5: Number of Rats with Analgesia ([1]; 3 h after administration, dose 8 mg./kg., 10 rats per dose) | Number of Rats with Analgesia ([1]; 5 h after administration, dose 20 mg./kg., 8 rats per dose)
30%: Percent of Rats with Analgesia Diflunisal Alone ([1]; 4 Hrs. after drug, Diflunisal 8 mg./kg., 10 rats per dose)
